Compound: COc1cc(Nc2ncc(F)c(Nc3ccc4c(n3)NC(=O)C(C)(C)O4)n2)cc(OC)c1OC [R406] + CS(=O)(=O)N1CCN(Cc2cc3nc(-c4cccc5[nH]ncc45)nc(N4CCOCC4)c3s2)CC1 [Pictilisib] (partner 1 µM)
Experiment: relative viability (nuclei count vs DMSO), 5 days (fraction); higher = more cells survive
Conditions: first compound 0.08 µM
Method in brief: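 Relative viability equals treated-well nuclei counts divided by vehicle-well nuclei counts. Counts came from 4× images of lung cancer cell lines grown in 1536-well plates for 5 days after pin-tool dosing on the day after seeding. Dosing used one drug alone or a fixed anchor-drug dose plus five library-drug doses (not always all listed) in √10 steps, and values are medians of duplicate plates.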

**Q.** Which relative viability does the source give for NCI-H1437 here?
**A.** 0.368

**Q.** Which relative viability does the source give for NCI-H1755 here?
**A.** 0.469

**Q.** Which relative viability does the source give for NCI-H2023 here?
**A.** 0.239

**Q.** How did the relative viability turn out when HCC-15 was run?
**A.** 0.702

**Q.** How did the relative viability turn out when PC-3 [JPC-3] was run?
**A.** 0.764

**Q.** Which relative viability does the source give for EKVX here?
**A.** 0.436

**Q.** With LC-2-ad as the cell line, how does the relative viability read?
**A.** 0.554

**Q.** With NCI-H1563 as the cell line, how does the relative viability read?
**A.** 0.678

**Q.** With NCI-H1975 as the cell line, how does the relative viability read?
**A.** 0.29

**Q.** SK-LU-1 was tested. Which relative viability did it give?
**A.** 0.46

**Q.** How did the relative viability turn out when ABC-1 was run?
**A.** 1

**Q.** Which relative viability does the source give for NCI-H1944 here?
**A.** 0.316

**Q.** With NCI-H661 as the cell line, how does the relative viability read?
**A.** 0.367

**Q.** Which relative viability does the source give for RERF-LC-KJ here?
**A.** 0.749

Same assay, conditions: first compound 0.253 µM

**Q.** For HCC-827, which relative viability is on record?
**A.** 0.735

**Q.** LXF-289 was tested. Which relative viability did it give?
**A.** 0.799

**Q.** NCI-H23 was tested. Which relative viability did it give?
**A.** 0.543

**Q.** How did the relative viability turn out when NCI-H1299 was run?
**A.** 0.816

**Q.** NCI-H650 was tested. Which relative viability did it give?
**A.** 1.04

**Q.** Which relative viability does the source give for CAL-12T here?
**A.** 0.575

**Q.** For NCI-H1651, which relative viability is on record?
**A.** 0.652

**Q.** Which relative viability does the source give for EPLC-272H here?
**A.** 0.326

**Q.** Which relative viability does the source give for NCI-H2228 here?
**A.** 0.222

**Q.** For NCI-H1792, which relative viability is on record?
**A.** 0.193

**Q.** NCI-H1355 was tested. Which relative viability did it give?
**A.** 0.571

**Q.** How did the relative viability turn out when NCI-H3122 was run?
**A.** 0.59

**Q.** How did the relative viability turn out when NCI-H1437 was run?
**A.** 0.535

**Q.** With NCI-H1755 as the cell line, how does the relative viability read?
**A.** 0.415

**Q.** How did the relative viability turn out when NCI-H2023 was run?
**A.** 0.243

**Q.** HCC-15 was tested. Which relative viability did it give?
**A.** 0.896

**Q.** Which relative viability does the source give for PC-3 [JPC-3] here?
**A.** 0.762

**Q.** For EKVX, which relative viability is on record?
**A.** 0.41

**Q.** LC-2-ad was tested. Which relative viability did it give?
**A.** 0.309

**Q.** NCI-H1563 was tested. Which relative viability did it give?
**A.** 0.656

**Q.** How did the relative viability turn out when NCI-H1975 was run?
**A.** 0.297

**Q.** How did the relative viability turn out when SK-LU-1 was run?
**A.** 0.658

**Q.** With ABC-1 as the cell line, how does the relative viability read?
**A.** 0.817

**Q.** Which relative viability does the source give for NCI-H1944 here?
**A.** 0.344

**Q.** With NCI-H661 as the cell line, how does the relative viability read?
**A.** 0.456

**Q.** How did the relative viability turn out when RERF-LC-KJ was run?
**A.** 0.488

Same assay, conditions: first compound 0.8 µM

**Q.** How did the relative viability turn out when HCC-827 was run?
**A.** 1.11

**Q.** How did the relative viability turn out when LXF-289 was run?
**A.** 0.845

**Q.** Which relative viability does the source give for NCI-H23 here?
**A.** 0.695

**Q.** NCI-H1299 was tested. Which relative viability did it give?
**A.** 0.874

**Q.** How did the relative viability turn out when NCI-H650 was run?
**A.** 0.993

**Q.** CAL-12T was tested. Which relative viability did it give?
**A.** 0.457

**Q.** For NCI-H1651, which relative viability is on record?
**A.** 0.727

**Q.** Which relative viability does the source give for EPLC-272H here?
**A.** 0.328

**Q.** How did the relative viability turn out when NCI-H2228 was run?
**A.** 0.532

**Q.** NCI-H1792 was tested. Which relative viability did it give?
**A.** 0.302

**Q.** Which relative viability does the source give for NCI-H1355 here?
**A.** 0.557

**Q.** NCI-H3122 was tested. Which relative viability did it give?
**A.** 0.668

**Q.** Which relative viability does the source give for NCI-H1437 here?
**A.** 0.367

**Q.** NCI-H1755 was tested. Which relative viability did it give?
**A.** 0.496

**Q.** For NCI-H2023, which relative viability is on record?
**A.** 0.257

**Q.** With HCC-15 as the cell line, how does the relative viability read?
**A.** 0.827

**Q.** PC-3 [JPC-3] was tested. Which relative viability did it give?
**A.** 0.814

**Q.** Which relative viability does the source give for EKVX here?
**A.** 0.422

**Q.** How did the relative viability turn out when LC-2-ad was run?
**A.** 0.596

**Q.** With NCI-H1563 as the cell line, how does the relative viability read?
**A.** 0.726

**Q.** How did the relative viability turn out when NCI-H1975 was run?
**A.** 0.319

**Q.** Which relative viability does the source give for SK-LU-1 here?
**A.** 0.546

**Q.** Which relative viability does the source give for ABC-1 here?
**A.** 0.72

**Q.** NCI-H1944 was tested. Which relative viability did it give?
**A.** 0.348

**Q.** With NCI-H661 as the cell line, how does the relative viability read?
**A.** 0.459

**Q.** Which relative viability does the source give for RERF-LC-KJ here?
**A.** 0.64

Same assay, conditions: first compound 2.53 µM

**Q.** Which relative viability does the source give for HCC-827 here?
**A.** 0.687

**Q.** For LXF-289, which relative viability is on record?
**A.** 0.634

**Q.** NCI-H23 was tested. Which relative viability did it give?
**A.** 0.165

**Q.** With NCI-H1299 as the cell line, how does the relative viability read?
**A.** 0.427

**Q.** NCI-H650 was tested. Which relative viability did it give?
**A.** 0.613

**Q.** Which relative viability does the source give for CAL-12T here?
**A.** 0.193

**Q.** Which relative viability does the source give for NCI-H1651 here?
**A.** 0.249

**Q.** For EPLC-272H, which relative viability is on record?
**A.** 0.156

**Q.** For NCI-H2228, which relative viability is on record?
**A.** 0.169

**Q.** Which relative viability does the source give for NCI-H1792 here?
**A.** 0.161

**Q.** Which relative viability does the source give for NCI-H1355 here?
**A.** 0.211

**Q.** NCI-H3122 was tested. Which relative viability did it give?
**A.** 0.576

**Q.** With NCI-H1437 as the cell line, how does the relative viability read?
**A.** 0.236

**Q.** Which relative viability does the source give for NCI-H1755 here?
**A.** 0.221

**Q.** With NCI-H2023 as the cell line, how does the relative viability read?
**A.** 0.0848

**Q.** For PC-3 [JPC-3], which relative viability is on record?
**A.** 0.467

**Q.** With EKVX as the cell line, how does the relative viability read?
**A.** 0.357

**Q.** How did the relative viability turn out when LC-2-ad was run?
**A.** 0.12

**Q.** Which relative viability does the source give for NCI-H1563 here?
**A.** 0.594

**Q.** Which relative viability does the source give for NCI-H1975 here?
**A.** 0.162

**Q.** With SK-LU-1 as the cell line, how does the relative viability read?
**A.** 0.277

**Q.** Which relative viability does the source give for ABC-1 here?
**A.** 0.393

**Q.** Which relative viability does the source give for NCI-H1944 here?
**A.** 0.265

**Q.** For NCI-H661, which relative viability is on record?
**A.** 0.345

**Q.** For RERF-LC-KJ, which relative viability is on record?
**A.** 0.43

Same assay, conditions: first compound 8 µM

**Q.** Which relative viability does the source give for HCC-827 here?
**A.** 0.862

**Q.** Which relative viability does the source give for LXF-289 here?
**A.** 0.268

**Q.** For NCI-H23, which relative viability is on record?
**A.** 0.328

**Q.** NCI-H1299 was tested. Which relative viability did it give?
**A.** 0.162

**Q.** Which relative viability does the source give for NCI-H650 here?
**A.** 0.604

**Q.** How did the relative viability turn out when CAL-12T was run?
**A.** 0.185

**Q.** Which relative viability does the source give for NCI-H1651 here?
**A.** 0.251

**Q.** How did the relative viability turn out when EPLC-272H was run?
**A.** 0.119

**Q.** For NCI-H2228, which relative viability is on record?
**A.** 0.187

**Q.** NCI-H1792 was tested. Which relative viability did it give?
**A.** 0.164

**Q.** How did the relative viability turn out when NCI-H1355 was run?
**A.** 0.313

**Q.** With NCI-H3122 as the cell line, how does the relative viability read?
**A.** 0.604

**Q.** Which relative viability does the source give for NCI-H1437 here?
**A.** 0.231

**Q.** For NCI-H1755, which relative viability is on record?
**A.** 0.195

**Q.** How did the relative viability turn out when NCI-H2023 was run?
**A.** 0.12

**Q.** For HCC-15, which relative viability is on record?
**A.** 0.693

**Q.** How did the relative viability turn out when PC-3 [JPC-3] was run?
**A.** 0.421

**Q.** How did the relative viability turn out when EKVX was run?
**A.** 0.347

**Q.** LC-2-ad was tested. Which relative viability did it give?
**A.** 0.0919

**Q.** For NCI-H1563, which relative viability is on record?
**A.** 0.492

**Q.** With NCI-H1975 as the cell line, how does the relative viability read?
**A.** 0.142

**Q.** With SK-LU-1 as the cell line, how does the relative viability read?
**A.** 0.173

**Q.** ABC-1 was tested. Which relative viability did it give?
**A.** 0.45

**Q.** For NCI-H1944, which relative viability is on record?
**A.** 0.279

**Q.** With NCI-H661 as the cell line, how does the relative viability read?
**A.** 0.271

**Q.** For RERF-LC-KJ, which relative viability is on record?
**A.** 0.502

Reference: the supplement of paper PMC10307832
